In the supplement of paper PMC4862054:

Tests used:
Details in all cases: 72 h
HCC1143 [1] = system: HCC1143
Summary of the method: (§1)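 Plates of 384 wells holding compound in 5 µl medium received breast cancer cell lines in 20 µl suspension and were incubated 72 h. CellTiter-Blue (2.5 µl, 2 h, 37 °C) was used for viability, read at 560/590 nm, and every plate was normalised to vehicle and a positive kill control and assessed by Z'-factor. The EC50 derives from a percent-inhibition dose-response curve fit censored at the highest concentration, leaving out rows whose drug sensitivity score was zero.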

MDA-MB-231 [2] = system: MDA-MB-231
Summary of the method: as §1

MFM-223 [3] = system: MFM-223
Summary of the method: as §1

BT-474 [4] = system: BT-474
Summary of the method: as §1

HCC1599 [5] = system: HCC1599
Summary of the method: as §1

Hs578T [6] = system: Hs578T
Summary of the method: as §1

HCC1143 [7] = system: HCC1143; remark: listed apart in the source
Description: (§2)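 Drug sensitivity and resistance testing (DSRT) of breast cancer cell lines in 384-well plates, 5 concentrations in 10-fold dilutions over a compound-specific 10,000-fold range. After 72 h, cytotoxicity was read by CellTox Green fluorescence and viability by CellTiter-Glo luminescence (multiplexed), normalised to DMSO and benzethonium chloride controls. EC50 is the inflection point of the fitted dose-response curve (bottom asymptote free, so it can be relative for partial curves) and is censored at the highest tested concentration. Rows with DSS 0 (no meaningful response) were excluded.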

MDA-MB-231 [8] = system: MDA-MB-231; remark: listed apart in the source
Description: as §2

DU-4475 [9] = system: DU-4475
Description: as §2

CAL-148 [10] = system: CAL-148
Description: as §2

HDQ-P1 [11] = system: HDQ-P1
Description: as §2

BT-474 [12] = system: BT-474; remark: listed apart in the source
Description: as §2

CAL-51 [13] = system: CAL-51
Description: as §2

MCF-10A [14] = system: MCF-10A
Description: as §2

CAL-85-1 [15] = system: CAL-85-1
Description: as §2

Hs578T [16] = system: Hs578T; remark: listed apart in the source
Description: as §2

MDA-MB-453 [17] = system: MDA-MB-453
Summary of the method: (§3)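 In this assay, breast cancer cell lines spent 72 h with compound at 5 concentrations in 10-fold steps over a compound-specific 10,000-fold range. The first readout was cell death by CellTox Green fluorescence, and the second was viability by CellTiter-Glo luminescence, each normalised per plate to 0.1 % DMSO and a positive kill control. EC50 came from the dose-response curves, censored at the top concentration.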

MDA-MB-436 = system: MDA-MB-436
Summary of the method: as §3

HCC1143 [18] = system: HCC1143; remark: listed apart in the source
Summary of the method: as §3

MDA-MB-231 [19] = system: MDA-MB-231; remark: listed apart in the source
Summary of the method: as §3

BT-549 [20] = system: BT-549
Summary of the method: as §3

DU-4475 [21] = system: DU-4475; remark: listed apart in the source
Summary of the method: as §3

MFM-223 [22] = system: MFM-223; remark: listed apart in the source
Summary of the method: as §3

CAL-148 [23] = system: CAL-148; remark: listed apart in the source
Summary of the method: as §3

HDQ-P1 [24] = system: HDQ-P1; remark: listed apart in the source
Summary of the method: as §3

BT-474 [25] = system: BT-474; remark: listed apart in the source
Summary of the method: as §3

HCC1599 [26] = system: HCC1599; remark: listed apart in the source
Summary of the method: as §3

HCC1937 = system: HCC1937
Summary of the method: as §3

CAL-51 [27] = system: CAL-51; remark: listed apart in the source
Summary of the method: as §3

MCF-10A [28] = system: MCF-10A; remark: listed apart in the source
Summary of the method: as §3

SK-BR-3 = system: SK-BR-3
Summary of the method: as §3

CAL-85-1 [29] = system: CAL-85-1; remark: listed apart in the source
Summary of the method: as §3

Hs578T [30] = system: Hs578T; remark: listed apart in the source
Summary of the method: as §3

MDA-MB-453 [31] = system: MDA-MB-453; remark: listed apart in the source
Summary of the method: as §1

DU-4475 [32] = system: DU-4475; remark: listed apart in the source
Summary of the method: as §1

HDQ-P1 [33] = system: HDQ-P1; remark: listed apart in the source
Summary of the method: as §1

CAL-85-1 [34] = system: CAL-85-1; remark: listed apart in the source
Summary of the method: as §1

MDA-MB-468 [35] = system: MDA-MB-468
Summary of the method: as §1

CAL-120 = system: CAL-120
Description: as §2

MDA-MB-468 [36] = system: MDA-MB-468; remark: listed apart in the source
Description: as §2

BT-549 [37] = system: BT-549; remark: listed apart in the source
Description: as §2

MFM-223 [38] = system: MFM-223; remark: listed apart in the source
Description: as §2

HCC1599 [39] = system: HCC1599; remark: listed apart in the source
Description: as §2

SMILES	EC50, CellTiter-Blue viability (HCC1143 [1]) [nM]	EC50, CellTiter-Blue viability (MDA-MB-231 [2]) [nM]	EC50, CellTiter-Blue viability (MFM-223 [3]) [nM]	EC50, CellTiter-Blue viability (BT-474 [4]) [nM]	EC50, CellTiter-Blue viability (HCC1599 [5]) [nM]	EC50, CellTiter-Blue viability (Hs578T [6]) [nM]	EC50, CellTox Green (HCC1143 [7]) [nM]	EC50, CellTox Green (MDA-MB-231 [8]) [nM]	EC50, CellTox Green (BT-474 [12]) [nM]	EC50, CellTox Green (CAL-51 [13]) [nM]	EC50, CellTox Green (MCF-10A [14]) [nM]	EC50, CellTox Green (CAL-85-1 [15]) [nM]	EC50, CellTox Green (Hs578T [16]) [nM]	EC50, CellTiter-Glo (MDA-MB-453 [17]) [nM]	EC50, CellTiter-Glo (MDA-MB-436) [nM]	EC50, CellTiter-Glo (HCC1143 [18]) [nM]	EC50, CellTiter-Glo (MDA-MB-231 [19]) [nM]	EC50, CellTiter-Glo (BT-549 [20]) [nM]	EC50, CellTiter-Glo (DU-4475 [21]) [nM]	EC50, CellTiter-Glo (MFM-223 [22]) [nM]	other results
C=CCNC1=C2C[C@@H](C)C[C@H](OC)[C@H](O)[C@@H](C)/C=C(\C)[C@H](OC(N)=O)[C@@H](OC)/C=C\C=C(/C)C(=O)NC(=CC1=O)C2=O [Tanespimycin]	8.84	722	18.4	48.4	84.3	36.9	> 10000	24.8	696	122	105	46.1	4340	23.4	28	63	371	52.9	208	64.1	EC50, CellTox Green (DU-4475 [9]): 179 nM; EC50, CellTox Green (CAL-148 [10]): 112 nM; EC50, CellTox Green (HDQ-P1 [11]): 112 nM; EC50, CellTiter-Glo (CAL-148 [23]): 178 nM; EC50, CellTiter-Glo (HDQ-P1 [24]): 103 nM; EC50, CellTiter-Glo (BT-474 [25]): 324 nM; EC50, CellTiter-Glo (HCC1599 [26]): 266 nM; EC50, CellTiter-Glo (HCC1937): 113 nM; EC50, CellTiter-Glo (CAL-51 [27]): 78.2 nM; EC50, CellTiter-Glo (MCF-10A [28]): 87.8 nM; EC50, CellTiter-Glo (SK-BR-3): 46.3 nM; EC50, CellTiter-Glo (CAL-85-1 [29]): 404 nM; EC50, CellTiter-Glo (Hs578T [30]): 97.9 nM; EC50, CellTiter-Blue viability (MDA-MB-453 [31]): 15.5 nM; EC50, CellTiter-Blue viability (DU-4475 [32]): 48.4 nM; EC50, CellTiter-Blue viability (HDQ-P1 [33]): 82.7 nM; EC50, CellTiter-Blue viability (CAL-85-1 [34]): 194 nM
CC[C@]1(O)C[C@@H]2CN(CCc3c([nH]c4ccccc34)[C@@](C(=O)OC)(c3cc4c(cc3OC)N(C)[C@H]3[C@@](O)(C(=O)OC)[C@H](OC(C)=O)[C@]5(CC)C=CCN6CC[C@]43[C@@H]65)C2)C1 [Vinblastine]	1.61	1.61	36	0.15	61.1	1.3	61.8	15.8	2.92	3.78	11.4	9.62	15.2	2.44	3.49	2.51	5.07	2.25	75.5	12.4	EC50, CellTiter-Blue viability (MDA-MB-468 [35]): 1.5 nM; EC50, CellTox Green (CAL-120): > 1000 nM; EC50, CellTox Green (MDA-MB-468 [36]): 2.48 nM; EC50, CellTox Green (BT-549 [37]): 4.29 nM; EC50, CellTox Green (MFM-223 [38]): 7.9 nM; EC50, CellTox Green (HCC1599 [39]): 7.49 nM; EC50, CellTiter-Glo (CAL-148 [23]): 8.95 nM; EC50, CellTiter-Glo (HDQ-P1 [24]): 5.35 nM; EC50, CellTiter-Glo (BT-474 [25]): 5.38 nM; EC50, CellTiter-Glo (HCC1599 [26]): 19.7 nM; EC50, CellTiter-Glo (HCC1937): 2.55 nM; EC50, CellTiter-Glo (CAL-51 [27]): 8.68 nM; EC50, CellTiter-Glo (MCF-10A [28]): 2.59 nM; EC50, CellTiter-Glo (SK-BR-3): 2.44 nM; EC50, CellTiter-Glo (CAL-85-1 [29]): 2.04 nM; EC50, CellTiter-Glo (Hs578T [30]): 9.25 nM; EC50, CellTiter-Blue viability (MDA-MB-453 [31]): 6.17 nM; EC50, CellTiter-Blue viability (DU-4475 [32]): 52.4 nM; EC50, CellTiter-Blue viability (HDQ-P1 [33]): 5.43 nM; EC50, CellTiter-Blue viability (CAL-85-1 [34]): 6.34 nM
Cc1c2oc3c(C)ccc(C(=O)N[C@@H]4C(=O)N[C@H](C(C)C)C(=O)N5CCC[C@H]5C(=O)N(C)CC(=O)N(C)[C@@H](C(C)C)C(=O)O[C@@H]4C)c3nc-2c(C(=O)N[C@@H]2C(=O)N[C@H](C(C)C)C(=O)N3CCC[C@H]3C(=O)N(C)CC(=O)N(C)[C@@H](C(C)C)C(=O)O[C@@H]2C)c(N)c1=O [Dactinomycin]	1.52	1.35	14.8	16.1	8.18	0.99	167	2.54	354	2.1	27	22.2	30.5	18.4	7.89	8.69	12.7	1.94	2.98	35.9	EC50, CellTiter-Blue viability (MDA-MB-468 [35]): 1.54 nM; EC50, CellTox Green (MDA-MB-468 [36]): 43.6 nM; EC50, CellTox Green (BT-549 [37]): 5.04 nM; EC50, CellTox Green (MFM-223 [38]): 93.9 nM; EC50, CellTox Green (CAL-148 [10]): 1.44 nM; EC50, CellTiter-Glo (CAL-148 [23]): 1.56 nM; EC50, CellTiter-Glo (HDQ-P1 [24]): 2.14 nM; EC50, CellTiter-Glo (BT-474 [25]): 12 nM; EC50, CellTiter-Glo (HCC1599 [26]): 35.9 nM; EC50, CellTiter-Glo (HCC1937): 4.61 nM; EC50, CellTiter-Glo (CAL-51 [27]): 5.11 nM; EC50, CellTiter-Glo (MCF-10A [28]): 8.54 nM; EC50, CellTiter-Glo (SK-BR-3): 14.1 nM; EC50, CellTiter-Glo (CAL-85-1 [29]): 9.71 nM; EC50, CellTiter-Glo (Hs578T [30]): 11.1 nM; EC50, CellTiter-Blue viability (MDA-MB-453 [31]): 1.9 nM; EC50, CellTiter-Blue viability (DU-4475 [32]): 0.72 nM; EC50, CellTiter-Blue viability (HDQ-P1 [33]): 1.67 nM; EC50, CellTiter-Blue viability (CAL-85-1 [34]): 2.03 nM
